From PubChem BioAssay AID1963968 (Molecular Pharmacology Branch, DTP, NCI, 2024)
pIC50: −log10 of the molar value.

Tested on: 945468-187-T-J3-PDC spheroids with HUVEC/MSC, viability
Test: Anticancer human tumor 945468-187-T-J3-PDC patient-derived rectal carcinoma cell line growth inhibition [PI3K]
Conditions: for pIC50: curve of first compound; for viability, T/C: stronger effect = lower value
How it was run: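 Targeted small molecules plus PI3K inhibitors, half-log dose series from Cmax (default top 10 microM), were applied to heterotypic spheroids of cancer cells with HUVEC and MSCs. Viability indicated growth inhibition.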

[1] = second compound 0.0316 µM, first compound 0.0316 µM
[2] = second compound 0.0316 µM, first compound 0.1 µM
[3] = second compound 0.0316 µM, first compound 0.316 µM
[4] = second compound 0.0316 µM, first compound 1 µM
[5] = second compound 0.0316 µM, first compound 3.16 µM
[6] = second compound 0.0316 µM, first compound 10 µM
[7] = second compound 0.1 µM, first compound 0.0316 µM
[8] = second compound 0.1 µM, first compound 0.1 µM
[9] = second compound 0.1 µM, first compound 0.316 µM
[10] = second compound 0.1 µM, first compound 1 µM
[11] = second compound 0.1 µM, first compound 3.16 µM
[12] = second compound 0.1 µM, first compound 10 µM
[13] = second compound 0.316 µM, first compound 0.0316 µM
[14] = second compound 0.316 µM, first compound 0.1 µM
[15] = second compound 0.316 µM, first compound 0.316 µM
[16] = second compound 0.316 µM, first compound 1 µM
[17] = second compound 0.316 µM, first compound 3.16 µM
[18] = second compound 0.316 µM, first compound 10 µM
[19] = second compound 1 µM, first compound 0.0316 µM
[20] = second compound 1 µM, first compound 0.1 µM
[21] = second compound 1 µM, first compound 0.316 µM
[22] = second compound 1 µM, first compound 1 µM
[23] = second compound 1 µM, first compound 3.16 µM
[24] = second compound 1 µM, first compound 10 µM
[25] = second compound 3.16 µM, first compound 0.0316 µM
[26] = second compound 3.16 µM, first compound 0.1 µM
[27] = second compound 3.16 µM, first compound 0.316 µM
[28] = second compound 3.16 µM, first compound 1 µM
[29] = second compound 3.16 µM, first compound 3.16 µM
[30] = second compound 3.16 µM, first compound 10 µM
[31] = second compound 10 µM, first compound 0.0316 µM
[32] = second compound 10 µM, first compound 0.1 µM
[33] = second compound 10 µM, first compound 0.316 µM
[34] = second compound 10 µM, first compound 1 µM
[35] = second compound 10 µM, first compound 3.16 µM
[36] = second compound 10 µM, first compound 10 µM
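Note: spheroids exposed to agents for 7 days before viability read.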
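Throughout, for viability, T/C: 100% = DMSO vehicle control viability.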

`CC(C)NCC(C(=O)N1CCN(c2ncnc3c2C(C)CC3O)CC1)c1ccc(Cl)cc1` (stereo not drawn) + Cc1nc(NC(=O)N2CCCC2C(N)=O)sc1-c1ccnc(C(C)(C)C(F)(F)F)c1 was tested, and the pIC50 (second compound 0.0316 µM) was less than 5.00, the pIC50 (second compound 0.1 µM) was less than 5.00 and the pIC50 (second compound 0.316 µM) was 5.27. It also gave a pIC50 (second compound 1 µM) of 5.54, a pIC50 (second compound 3.16 µM) of 5.77 and a pIC50 (second compound 10 µM) of 6.52. For the same compound, the viability, T/C [1] was 109%, the viability, T/C [2] was 116% and the viability, T/C [3] was 84.4%. For the same compound, the viability, T/C [4] was 94.1%, the viability, T/C [5] was 76.9% and the viability, T/C [6] was 55%. For the same compound, the viability, T/C [7] was 103%, the viability, T/C [8] was 101% and the viability, T/C [9] was 93.3%. For the same compound, the viability, T/C [10] was 91.8%, the viability, T/C [11] was 80.6% and the viability, T/C [12] was 54.6%. The viability, T/C [13] was 114%, the viability, T/C [14] was 104% and the viability, T/C [15] was 99.4%. The viability, T/C [16] was 88.3%, the viability, T/C [17] was 60% and the viability, T/C [18] was 36.4%. The viability, T/C [19] was 99.6%, the viability, T/C [20] was 104% and the viability, T/C [21] was 91.9%. It also gave a viability, T/C [22] of 80.7%, a viability, T/C [23] of 46.5% and a viability, T/C [24] of 32.6%. It also gave a viability, T/C [25] of 92.6%, a viability, T/C [26] of 87.8% and a viability, T/C [27] of 82.1%. For the same compound, the viability, T/C [28] was 59.3%, the viability, T/C [29] was 38.9% and the viability, T/C [30] was 27.1%. It also gave a viability, T/C [31] of 68.9%, a viability, T/C [32] of 54.6% and a viability, T/C [33] of 51%. For the same compound, the viability, T/C [34] was 45%, the viability, T/C [35] was 36.9% and the viability, T/C [36] was 33.2%.
`CCN1CCN(Cc2ccc(Nc3ncc(F)c(-c4cc(F)c5nc(C)n(C(C)C)c5c4)n3)nc2)CC1` + Cc1nc(NC(=O)N2CCCC2C(N)=O)sc1-c1ccnc(C(C)(C)C(F)(F)F)c1 showed a pIC50 (second compound 0.0316 µM) of less than 6.00, a pIC50 (second compound 0.1 µM) of less than 6.00 and a pIC50 (second compound 0.316 µM) of less than 6.00. For the same compound, the pIC50 (second compound 1 µM) was 6.13, the pIC50 (second compound 3.16 µM) was 6.52 and the pIC50 (second compound 10 µM) was 7.45. For the same compound, the viability, T/C (second compound 0.0316 µM, first compound 0.00316 µM) was 83.5%, the viability, T/C (second compound 0.0316 µM, first compound 0.01 µM) was 103% and the viability, T/C [1] was 95.6%. It also gave a viability, T/C [2] of 105%, a viability, T/C [3] of 115% and a viability, T/C [4] of 105%. For the same compound, the viability, T/C (second compound 0.1 µM, first compound 0.00316 µM) was 87.8%, the viability, T/C (second compound 0.1 µM, first compound 0.01 µM) was 97.9% and the viability, T/C [7] was 107%. It also gave a viability, T/C [8] of 103%, a viability, T/C [9] of 121% and a viability, T/C [10] of 102%. For the same compound, the viability, T/C (second compound 0.316 µM, first compound 0.00316 µM) was 97%, the viability, T/C (second compound 0.316 µM, first compound 0.01 µM) was 96.2% and the viability, T/C [13] was 95.6%. The viability, T/C [14] was 107%, the viability, T/C [15] was 113% and the viability, T/C [16] was 53.5%. For the same compound, the viability, T/C (second compound 1 µM, first compound 0.00316 µM) was 102%, the viability, T/C (second compound 1 µM, first compound 0.01 µM) was 103% and the viability, T/C [19] was 101%. It also gave a viability, T/C [20] of 106%, a viability, T/C [21] of 90.3% and a viability, T/C [22] of 35.2%. For the same compound, the viability, T/C (second compound 3.16 µM, first compound 0.00316 µM) was 107%, the viability, T/C (second compound 3.16 µM, first compound 0.01 µM) was 97.5% and the viability, T/C [25] was 88.9%. It also gave a viability, T/C [26] of 99.3%, a viability, T/C [27] of 47.5% and a viability, T/C [28] of 26.9%. For the same compound, the viability, T/C (second compound 10 µM, first compound 0.00316 µM) was 65.6%, the viability, T/C (second compound 10 µM, first compound 0.01 µM) was 59.4% and the viability, T/C [31] was 45.6%. It also gave a viability, T/C [32] of 45.8%, a viability, T/C [33] of 35.2% and a viability, T/C [34] of 23.7%.
`Cn1ncc(Cl)c1-c1cc(C(=O)NC(CN)Cc2cccc(F)c2)sc1Cl` (stereo not drawn) + Cc1nc(NC(=O)N2CCCC2C(N)=O)sc1-c1ccnc(C(C)(C)C(F)(F)F)c1 gave a pIC50 (second compound 0.0316 µM) of 5.39, a pIC50 (second compound 0.1 µM) of 5.53 and a pIC50 (second compound 0.316 µM) of 5.71. The pIC50 (second compound 1 µM) was 5.84, the pIC50 (second compound 3.16 µM) was 6.22 and the pIC50 (second compound 10 µM) was 6.88. It also gave a viability, T/C [1] of 86.1%, a viability, T/C [2] of 106% and a viability, T/C [3] of 96.3%. For the same compound, the viability, T/C [4] was 83%, the viability, T/C [5] was 54.6% and the viability, T/C [6] was 35.1%. The viability, T/C [7] was 110%, the viability, T/C [8] was 97.2% and the viability, T/C [9] was 93.5%. For the same compound, the viability, T/C [10] was 60.1%, the viability, T/C [11] was 53.7% and the viability, T/C [12] was 34.1%. It also gave a viability, T/C [13] of 114%, a viability, T/C [14] of 119% and a viability, T/C [15] of 94%. The viability, T/C [16] was 61.8%, the viability, T/C [17] was 44.6% and the viability, T/C [18] was 29.7%. It also gave a viability, T/C [19] of 109%, a viability, T/C [20] of 108% and a viability, T/C [21] of 82.4%. For the same compound, the viability, T/C [22] was 54%, the viability, T/C [23] was 39.8% and the viability, T/C [24] was 21.1%. The viability, T/C [25] was 107%, the viability, T/C [26] was 84% and the viability, T/C [27] was 53.2%. It also gave a viability, T/C [28] of 45%, a viability, T/C [29] of 32.7% and a viability, T/C [30] of 16.4%. It also gave a viability, T/C [31] of 60.6%, a viability, T/C [32] of 52.2% and a viability, T/C [33] of 40%. For the same compound, the viability, T/C [34] was 31.9%, the viability, T/C [35] was 28.4% and the viability, T/C [36] was 4.34%.
With `Cn1nccc1Nc1nccc(-c2ccn(C(CO)c3ccc(Cl)c(F)c3)c(=O)c2)n1` (stereo not drawn) + Cc1nc(NC(=O)N2CCCC2C(N)=O)sc1-c1ccnc(C(C)(C)C(F)(F)F)c1 the pIC50 (second compound 0.0316 µM) was less than 5.00, the pIC50 (second compound 0.1 µM) was less than 5.00 and the pIC50 (second compound 0.316 µM) was less than 5.00. It also gave a pIC50 (second compound 1 µM) of less than 5.00, a pIC50 (second compound 3.16 µM) of less than 5.00 and a pIC50 (second compound 10 µM) of less than 5.00. The viability, T/C [1] was 89.1%, the viability, T/C [2] was 111% and the viability, T/C [3] was 106%. For the same compound, the viability, T/C [4] was 119%, the viability, T/C [5] was 135% and the viability, T/C [6] was 133%. The viability, T/C [7] was 107%, the viability, T/C [8] was 109% and the viability, T/C [9] was 110%. The viability, T/C [10] was 116%, the viability, T/C [11] was 125% and the viability, T/C [12] was 118%. The viability, T/C [13] was 106%, the viability, T/C [14] was 114% and the viability, T/C [15] was 104%. The viability, T/C [16] was 117%, the viability, T/C [17] was 129% and the viability, T/C [18] was 138%. It also gave a viability, T/C [19] of 113%, a viability, T/C [20] of 112% and a viability, T/C [21] of 111%. For the same compound, the viability, T/C [22] was 119%, the viability, T/C [23] was 144% and the viability, T/C [24] was 136%. It also gave a viability, T/C [25] of 104%, a viability, T/C [26] of 101% and a viability, T/C [27] of 96.6%. The viability, T/C [28] was 121%, the viability, T/C [29] was 91.2% and the viability, T/C [30] was 90.1%. The viability, T/C [31] was 59.8%, the viability, T/C [32] was 61.7% and the viability, T/C [33] was 61%. It also gave a viability, T/C [34] of 54.8%, a viability, T/C [35] of 52.9% and a viability, T/C [36] of 52.9%.
